Values belong to the compound of their own block, whether it stands above or below them.
How the values were obtained:
[1] = parameters: method as in PMID 26146768; details: cited from earlier work
[2] = Saturation concentration of CXB in oily phases, surfactants and co-surfactants/co-solvents; format: physicochemical; details: 30 °C
Experimental: To assess the saturation concentration of CXB in different oily phases (Capryol 90, Captex 200 P, Captex 355 EP/NF, isopropyl myristate, Maisine CC, and Peceol), surfactants (Cremophor RH40, Labrasol, Tween 20, and Tween 80), and co-surfactants/co-solvents (Capmul PG-8 NF, PEG 400, Plurol oleique CC 497, and tetraglycol), an excess amount of CXB was added to the liquid excipients and placed in a tube rotator at 20 rpm and 30 °C for a day. After that, samples were centrifuged at 14,000 rpm for 20 min and the supernatant was appropriately diluted in methanol. The drug concentration was determined at 252 nm with a UV-VIS spectrophotometer Unicam UV 500A (Gemini, Apeldoorn, The Netherlands).

[3] = pH 7; cited from earlier work
[4] = parameters: method as in PMID 26401428; details: cited from earlier work
[5] = parameters: method as in PMID 14603484; details: rats; cited from earlier work

SMILES: C[C@]12C=CC(=O)C=C1CC[C@@H]1[C@@H]2[C@@H](O)C[C@@]2(C)[C@H]1CC[C@]2(O)C(=O)CO [prednisolone]
effect of pH-dependent colon targeted film coating on in vitro release profile of solid SMEDDS [1]: not impacted

solubility of CXB in surfactants ([2]; Tween 20, Tween 80, cremophor RH40, Labrasol ALF): comparable CXB solubilities
solubility of CXB in co-surfactants/co-solvents ([2]; in PEG 400 and tetraglycol): highest solubility
solubility of CXB in oily phases ([2]; in capryol 90, among six oily phases): highest amount
SMILES: Cc1ccc(-c2cc(C(F)(F)F)nn2-c2ccc(S(N)(=O)=O)cc2)cc1 [CXB, Celecoxib]
solubility [3]: 3 to 7 µg/mL

SMILES: CCCCCCCCCCCCOS(=O)(=O)[O-].[Na+] [SDS, sodium dodecyl sulfate]
critical micelle concentration [4]: 8 mM

SMILES: CC(=O)O[C@H]1C(=O)[C@@]2(C)[C@H]([C@H](OC(=O)c3ccccc3)[C@]3(O)C[C@H](OC(=O)[C@H](O)[C@@H](NC(=O)c4ccccc4)c4ccccc4)C(C)=C1C3(C)C)[C@]1(OC(C)=O)CO[C@@H]1C[C@@H]2O [paclitaxel]
higher bioavailability by HPMC precipitation inhibition in SEDDS [5]: 5 fold

Source: publication PMC8156508, “Ileo-Colon Targeting of the Poorly Water-Soluble Drug Celecoxib Using a pH-Dependent Coating in Combination with Self-Emulsifying Drug Delivery or Solid Dispersion Systems” (Pharmaceutics, 2021)
